Test results from patent publication US8809314B1, “Cephalosporin compound” (Cubist Pharmaceuticals, Inc., priority 2012, dated 2014).
≈ marks a conversion by molar mass, not a printed value. Where “and” joins values, the source holds several entries; their conditions need not be identical. Identical values can stand only once.

Experiments:
MRSA #712 = assay: Thigh infection in neutropenic mice; assay type: in vivo, Staphylococcus aureus; details: MRSA #712 thigh infection, neutropenic mice, 2 SC doses at 1 and 6 hrs, 24 h, vs vehicle
Method: (§1) In vivo efficacy of (I) was evaluated against strains of MRSA, and ceftazidime-resistant Pa and Klebsiella pneumonia (Kpn) in mouse septicemia, thigh and lung infections. Septicemia: CD-1 mice received lethal bacterial inocula IP, followed by 2 doses of antibiotics SC at 1 and 6 hrs post-inoculation. Dose calculated to protect 50% of the mice (PD50) was derived based on probit analysis of percentage survival. Thigh and lung infections: Thighs or lungs of neutropenic mice were inoculated with MRSA or Pa. Two treatment doses were given SC at 1 and 6 hrs post-inoculation. Tissues were harvested at ˜24 hrs post-inoculation and bacterial burdens quantified.
(§2) II. Methods • A. Animals: Six week-old, specific pathogen free, female CD-1 mice purchased from Charles River Laboratories (Wilmington, Mass.) were used for all studies after acclimation in Cubist animal facility. All animal procedures were approved by the Cubist Institutional Animal Care and Use Committee. • B. Bacteria and In Vitro Susceptibility Testing: MRSA #712, Pseudomonas aeruginosa #2245 and #2545, and Klebsiella pneumoniae #573 are clinical isolates; Pseudomonas aeruginosa #44 is an ATCC strain (ATCC#27853). MIC was determined in MHB by standard CLSI microdilution. […] The survival of animals was recorded daily for 7 days. The antibiotic dose calculated to protect 50% of the mice (PD50) was derived based on probit analysis of percentage survival. • E. Mouse Thigh and Lung Infections: Mice were rendered neutropenic by two IP injections of cyclophosphamide 4 days (150 mg/kg) and 1 day (100 mg/kg) before bacterial inoculation. […] Tissue bacterial burdens were quantified by serial dilution and spiral plating of homogenates.

[1] = system: ceftazidime-susceptible Pseudomonas aeruginosa #44 (ATCC#27853); assay: Lung infection in neutropenic mice; assay type: in vivo; details: Pa #44 lung infection
Method: as §1
(§3) II. Methods • A. Animals: Six week-old, specific pathogen free, female CD-1 mice purchased from Charles River Laboratories (Wilmington, Mass.) were used for all studies after acclimation in Cubist animal facility. All animal procedures were approved by the Cubist Institutional Animal Care and Use Committee. • B. Bacteria and In Vitro Susceptibility Testing: MRSA #712, Pseudomonas aeruginosa #2245 and #2545, and Klebsiella pneumoniae #573 are clinical isolates; Pseudomonas aeruginosa #44 is an ATCC strain (ATCC#27853). MIC was determined in MHB by standard CLSI microdilution. Comparator Antibiotics Used in Animal Studies: Vancomycin hydrochloride USP was purchased from Hospira (Lake Forest, Ill.); ceftazidime hydrate from Sigma; Primaxin (imipenem and cilastatin) from Merck; ceftaroline was synthesized at a CRO. • D. Mouse Septicemia: Mice received lethal inocula of bacteria in 6% hog gastric mucin intraperitoneally (IP), followed by two treatment doses of antibiotics via subcutaneous (SC) administration at 1 and 6 hrs post-inoculation. The survival of animals was recorded daily for 7 days. The antibiotic dose calculated to protect 50% of the mice (PD50) was derived based on probit analysis of percentage survival. • E. Mouse Thigh and Lung Infections: Mice were rendered neutropenic by two IP injections of cyclophosphamide 4 days (150 mg/kg) and 1 day (100 mg/kg) before bacterial inoculation. Thigh or lung infection was induced by an intramuscular injection of 0.2 mL or intranasal inoculation of 0.1 mL inoculum preparation from an overnight bacterial culture into left thigh or nares. Tissues from one group of mice receiving no treatment (No Rx) were harvested at 1 hr for determination of baseline of bacterial burden. The remaining mice received two treatment doses of vehicles or antibiotics given SC at 1 and 6 hrs post-inoculation. Tissues from the treated mice were harvested at ˜24 hrs post-inoculation. Tissue bacterial burdens were quantified by serial dilution and spiral plating of homogenates.

[2] = system: ceftazidime-susceptible Pseudomonas aeruginosa #2245; assay: Lung infection in neutropenic mice; assay type: in vivo; details: Pa #2245 lung infection, 3-log CFU reduction vs vehicle at 24 h
Method: as §1, §3

[3] = system: ceftazidime-resistant Pseudomonas aeruginosa #2545; assay: Lung infection in neutropenic mice; assay type: in vivo; details: Pa #2545 lung infection, neutropenic mice
Method: as §1, §3

Pa2694 = assay: MIC, broth microdilution (Example 5), Table 3; assay type: cell-based; details: Pseudomonas aeruginosa
Method: (§4) II. […] MIC90 values were defined as the concentration required to inhibit growth of 90% of the strains tested. • C. SAR was performed using the following isolates: Sa399 (ATCC43300, MRSA), Sa1721 (NARSA NRS384, MRSA USA 300), Pa44 (ATCC27853), and 4 clinical isolates (Pa2241, Pa2086 (mucoid strain), Pa2694 and Pa2698). • D. The in vitro antibacterial activity of the compound of formula (I) was further evaluated in an expanded MRSA and Pa MIC panel (see Table 4 and FIG. 6).

Pa2698 = assay: MIC, broth microdilution (Example 5), Table 3; assay type: cell-based; details: Pseudomonas aeruginosa
Method: as §4

Pa2241 = assay: MIC, broth microdilution (Example 5), Table 3; assay type: cell-based; details: Pseudomonas aeruginosa
Method: as §4

[4] = system: Sa1721 (NARSA NRS384, MRSA USA 300); assay: MIC, broth microdilution (Example 5), Table 3; assay type: cell-based; details: Staphylococcus aureus
Method: as §4

Pa2086 (mucoid strain) = assay: MIC, broth microdilution (Example 5), Table 3; assay type: cell-based; details: Pseudomonas aeruginosa
Method: as §4

Sa399 (ATCC43300, MRSA) = assay: MIC, broth microdilution (Example 5), Table 3; assay type: cell-based; details: Staphylococcus aureus
Method: as §4

Pa44 (ATCC27853) = assay: MIC, broth microdilution (Example 5), Table 3; assay type: cell-based; details: Pseudomonas aeruginosa
Method: as §4

MRSA (n = 21) = assay: MIC90, expanded MIC panel (Table 4); assay type: cell-based; details: Staphylococcus aureus; 21 MRSA strains; read-out: MIC90 MRSA (n = 21)
Method: as §4

[5] = system: Klebsiella pneumoniae #573; assay: Mouse septicemia (systemic infection), PD50; assay type: in vivo; details: Kpn #573; CD-1 mice, IP inoculum, 2 SC doses at 1 and 6 hrs, 7 day survival
Method: as §1
as §2, with “All animal procedures were approved by the Cubist Institutional Animal Care and Use Committee. • B. Bacteria and In Vitro Susceptibility Testing: MRSA #712, Pseudomonas aeruginosa #2245 and #2545, and Klebsiella pneumoniae #573 are clinical isolates; Pseudomonas aeruginosa #44 is an ATCC strain (ATCC#27853).” left out

[6] = 2 SC doses at 1 and 6 hrs, 24 h, vs vehicle
[7] = 3-log CFU reduction vs vehicle at 24 h

CO/N=C(\C(=O)N[C@@H]1C(=O)N2C(C(=O)[O-])=C(C[n+]3ccc(N)c(NC(=O)Nc4ccc(CCNC(=N)N)cc4)c3)CS[C@H]12)c1nc(N)sc1Cl [(I)]
Thigh (T) ED−2log (MRSA #712): 68.9 mg/kg and 68.9 (T) mg/kg | Lung (L) ED−2log [1, 6]: 1.8 (L) mg/kg | ED−3 log [1, 7]: 4.1 mg/kg | ED−3 log [2]: 5.2 mg/kg | Lung (L) ED−2log [3, 6]: 6.7 (L) mg/kg | ED−3 log [3, 7]: 11.4 mg/kg | MIC (Pa2694): 8 µg/mL (≈ 10.8 µM) | MIC (Pa2698): 8 µg/mL (≈ 10.8 µM) | MIC (Pa2241): 1 µg/mL (≈ 1.35 µM) | MIC [4]: 8 µg/mL (≈ 10.8 µM) | MIC (Pa2086 (mucoid strain)): 8 µg/mL (≈ 10.8 µM) | MIC (Sa399 (ATCC43300, MRSA)): 2 µg/mL (≈ 2.69 µM) | MIC (Pa44 (ATCC27853)): 2 µg/mL (≈ 2.69 µM) | MIC90 (MRSA (n = 21)): 2 µg/mL (≈ 2.69 µM) | Septicemia PD50 (± SE) [5]: <1.3 mg/kg
